41 compounds from US9216973B2, “Insecticidal compounds” (Syngenta Participations AG, priority 2008, dated 2015) can be followed below.

Structures are written as SMILES.

What is called pest or weed control is how far the test organism was held down.

For the first test, the system named is Spodoptera littoralis (Egyptian cotton leafworm). The test can be described thus: Spodoptera littoralis cotton leaf disc spray test. Type of test: in vivo. To be noted: foliar, 72 h, 200 ppm spray on cotton leaf discs, L1 larvae, mortality, feeding behavior, growth regulation 3 days after treatment. The protocol:
This Example illustrates the insecticidal and acaricidal properties of compounds of formula (I). The tests were performed as follows:
Spodoptera littoralis (Egyptian cotton leafworm):
Cotton leaf discs were placed on agar in a 24-well microtiter plate and sprayed with test solutions at an application rate of 200 ppm. After drying, the leaf discs were infested with 5 L1 larvae. The samples were checked for mortality, feeding behavior, and growth regulation 3 days after treatment (DAT). The following compound gave at least 80% control of Spodoptera littoralis: A1, A2, A5, A6, A7, A8, A10, A11, A12, A13, A14, A15, A16, A17, A18, A19, A21, A22, A23, A24, A25, A30, A31, A32, A33, A34, A35, A39, A40, A41 A42, A43, A44, A45, A46, A47, A48, A49, A50, A51, A53, A54, A55, A59, A60, A61, A62. Heliothis virescens (Tobacco budworm): Eggs (0-24 h old) were placed in 24-well microtiter plate on artificial diet and treated with test solutions at an application rate of 200 ppm (concentration in well 18 ppm) by pipetting. After an incubation period of 4 days, samples were checked for egg mortality, larval mortality, and growth regulation. The following compound gave at least 80% control of Heliothis virescens: A1, A2, A3, A4, A5, A6, A7, A8, A10, A11, A12, A13, A14, A15, A16, A18, A19, A21, A22, A24, A25, A30, A31, A32, A33, A34, A35, A37, A38, A39, A40, A42, A43, A44, A45, A46, A47, A48, A49, A50, A51, A55, AA57, A58, A59, A60, A61, A62. Plutella xylostella (Diamond back moth): 24-well microtiter plate (MTP) with artificial diet was treated with test solutions at an application rate of 200 ppm (concentration in well 18 ppm) by pipetting. After drying, the MTP's were infested with L2 larvae (7-12 per well). After an incubation period of 6 days, samples were checked for larval mortality and growth regulation. The following compound gave at least 80% control of Plutella xylostella: A1, A2, A5, A6, A7, A8, A9, A10, A11, A12, A13, A14, A15, A16, A17, A18, A19, A20, A21, A22, A24, A25, A30, A31, A32, A33, A34, A35, A37, A38, A39, A40, A42, A43, A44, A45, A46, A47, A48, A49, A50, A51, A52, A53, A54, A55, A57, A58, A59, A60, A61, A62, B3. Diabrotica balteata (Corn root worm): A 24-well microtiter plate (MTP) with artificial diet was treated with test solutions at an application rate of 200 ppm (concentration in well 18 ppm) by pipetting. After drying, the MTP's were infested with L2 larvae (6-10 per well). After an incubation period of 5 days, samples were checked for larval mortality and growth regulation. The following compound gave at least 80% control of Diabrotica balteata: A1, A2, A5, A6, A7, A10, A11, A12, A13, A14, A15, A16, A17, A18, A19, A21, A22, A24, A25, A30, A31, A32, A33, A34, A35, A38, A39, A40, A42, A43, A44, A45, A46, A47, A48, A49, A50, A59, A60, A61, A62. Thrips tabaci (Onion thrips): Sunflower leaf discs were placed on agar in a 24-well microtiter plate and sprayed with test solutions at an application rate of 200 ppm. After drying, the leaf discs were infested with an […] population of mixed ages. After an incubation period of 7 days, samples were checked for mortality. The following compounds gave at least 80% control of Thrips tabaci: A1, A2, A5, A6, A7, A8, A10, A12, A13, A14, A15, A16, A17, A18, A19, A21, A24, A25, A30, A31, A32, A33, A34, A35, A39, A42, A43, A44, A45, A46, A47, A48, A49, A50, A51, A53, A54, A57, A58, A59, A60, A61, A62. Tetranychus urticae (Two-spotted spider mite): Bean leaf discs on agar in 24-well microtiter plates were sprayed with test solutions at an application rate of 200 ppm. After drying, the leaf discs are infested with mite populations of mixed ages. 8 days later, discs are checked for egg mortality, larval mortality, and adult mortality. […]
For `CC1(NC(=O)c2ccc(C3=NOC(c4cc(Cl)cc(Cl)c4)(C(F)(F)F)C3)c3ccccc23)CSC1` (centres unmarked) [A1], the pest or weed control at 200 ppm was at least 80%.
Consider `O=C(NC1CSC1)c1ccc(C2=NOC(c3cc(Cl)cc(Cl)c3)(C(F)(F)F)C2)c2ccccc12` (centres unmarked) [A2], for which the pest or weed control at 200 ppm was at least 80%.
Still for that read-out and setting: the result for `Cc1cc(C2=NOC(c3cc(Cl)cc(Cl)c3)(C(F)(F)F)C2Br)ccc1C(=O)NC1(C)CSC1` (centres unmarked) [A5] reads at least 80%; that for `Cc1cc(C2=NOC(c3cc(Cl)cc(Cl)c3)(C(F)(F)F)C2Br)ccc1C(=O)NC1CSC1` (centres unmarked) [A6], at least 80%; that for `Cc1cc(C2=NOC(c3cc(Cl)cc(Cl)c3)(C(F)(F)F)C2Br)ccc1C(=O)NC1C[S+]([O-])C1` (centres unmarked) [A7], at least 80%.
For the compound `Cc1cc(N2CC(c3cc(Cl)cc(Cl)c3)(C(F)(F)F)OC2=O)ccc1C(=O)NC1C[S+]([O-])C1` (centres unmarked) [A10], the pest or weed control at 200 ppm was at least 80%.
Still for that read-out and setting: the result for `Cc1cc(N2CC(c3cc(Cl)cc(Cl)c3)(C(F)(F)F)OC2=O)ccc1C(=O)NC1CSC1` (centres unmarked) [A11] reads at least 80%; that for `Cc1cc(C2=NN(C)C(c3cc(Cl)cc(Cl)c3)(C(F)(F)F)C2)ccc1C(=O)NC1(C)CSC1` (centres unmarked) [A12], at least 80%; that for `Cc1cc(C2=NN(C)C(c3cc(Cl)cc(Cl)c3)(C(F)(F)F)C2)ccc1C(=O)NC1C[S+]([O-])C1` (centres unmarked) [A13], at least 80%.
Same read-out and setting: for `Cc1cc(C2=NN(C)C(c3cc(Cl)cc(Cl)c3)(C(F)(F)F)C2)ccc1C(=O)NC1CSC1` (centres unmarked) [A14] the value was at least 80%; for `O=C(NC1CS(=O)(=O)C1)c1ccc(C2=NOC(c3cc(Cl)cc(Cl)c3)(C(F)(F)F)C2)c2ccccc12` (centres unmarked) [A15], at least 80%; for `O=C(NC1C[S+]([O-])C1)c1ccc(C2=NOC(c3cc(Cl)cc(Cl)c3)(C(F)(F)F)C2)c2ccccc12` (centres unmarked) [A16], at least 80%.
As to `Cc1cc(C2=NOC(c3cc(Cl)cc(Cl)c3)(C(F)(F)F)O2)ccc1C(=O)NC1CSC1` (centres unmarked) [A17], the pest or weed control at 200 ppm was at least 80%.
In turn, `Cc1cc(C2CC(c3cc(Cl)cc(Cl)c3)(C(F)(F)F)ON2C)ccc1C(=O)NC1C[S+]([O-])C1` (centres unmarked) [A18] returned a pest or weed control at 200 ppm of at least 80%.
Compound `Cc1cc(C2CC(c3cc(Cl)cc(Cl)c3)(C(F)(F)F)ON2C)ccc1C(=O)NC1CS(=O)(=O)C1` (centres unmarked) [A19] gave a pest or weed control at 200 ppm of at least 80%.
On to `Cc1cc(C2CC(c3cc(Cl)cc(Cl)c3)(C(F)(F)F)ON2C)ccc1C(=O)NC1CSC1` (centres unmarked) [A21], for which the pest or weed control at 200 ppm was at least 80%.
On the same count and under the same terms, the result for `O=C(NC1CS(=O)(=O)C1)c1ccc(C2=NOC(c3cc(Cl)cc(Cl)c3)(C(F)(F)F)C2)c2nsnc12` (centres unmarked) [A22] reads at least 80%; that for `Cc1cc(C2=NOC(c3cc(Cl)cc(Cl)c3)(C(F)(F)F)C2Cl)ccc1C(=O)NC1CS(=O)(=O)C1` (centres unmarked) [A32], at least 80%.
As to `Cc1cc(C2=NOC(c3cc(Cl)cc(Cl)c3)(C(F)(F)F)C2Cl)ccc1C(=O)NC1(C)CSC1` (centres unmarked) [A33], the pest or weed control at 200 ppm was at least 80%.
The same measure, in the same setting: the result for `Cc1cc(C2=NOC(c3cc(Cl)cc(Cl)c3)(C(F)(F)F)C2Cl)ccc1C(=O)NC1C[S+]([O-])C1` (centres unmarked) [A34] reads at least 80%; that for `O=C(NC1CS(=O)(=O)C1)c1ccc(C2=NOC(c3cc(Cl)cc(Cl)c3)(C(F)(F)F)C2Br)c2ccccc12` (centres unmarked) [A42], at least 80%.
Still for that read-out and setting: the result for `CC1(NC(=O)c2ccc(C3=NOC(c4cc(Cl)cc(Cl)c4)(C(F)(F)F)C3Br)c3ccccc23)CSC1` (centres unmarked) [A43] reads at least 80%.
On the same count and under the same terms, the result for `O=C(NC1C[S+]([O-])C1)c1ccc(C2=NOC(c3cc(Cl)cc(Cl)c3)(C(F)(F)F)C2Br)c2ccccc12` (centres unmarked) [A44] reads at least 80%.
In the case of `Cc1cc(C2=NCC(c3cc(Cl)cc(Cl)c3)(C(F)(F)F)C2)ccc1C(=O)NC1CS(=O)(=O)C1` (centres unmarked) [A46], the pest or weed control at 200 ppm is at least 80%.
`Cc1cc(C2=NCC(c3cc(Cl)cc(Cl)c3)(C(F)(F)F)C2)ccc1C(=O)NC1(C)CSC1` (centres unmarked) [A47] came in with a pest or weed control at 200 ppm of at least 80%.
Turning to `Cc1cc(C2=NCC(c3cc(Cl)cc(Cl)c3)(C(F)(F)F)C2)ccc1C(=O)NC1C[S+]([O-])C1` (centres unmarked) [A48], the pest or weed control at 200 ppm is at least 80%.
Compound `Cc1cc(C2=NCC(c3cc(Cl)cc(Cl)c3)(C(F)(F)F)C2)ccc1C(=O)NC1CSC1` (centres unmarked) [A49] displayed a pest or weed control at 200 ppm of at least 80%.
As for `Cc1cc(C2=NOC(c3cc(Cl)cc(Cl)c3)(C(F)(F)F)C2O)ccc1C(=O)NC1CS(=O)(=O)C1` (centres unmarked) [A51], the pest or weed control at 200 ppm was at least 80%.
`Cc1cc(C2=NOC(c3cc(Cl)cc(Cl)c3)(C(F)(F)F)C2O)ccc1C(=O)NC1C[S+]([O-])C1` (centres unmarked) [A53] displayed a pest or weed control at 200 ppm of at least 80%.
Same read-out and setting: for `Cc1cc(C2=NOC(c3cc(Cl)cc(Cl)c3)(C(F)(F)F)C2O)ccc1C(=O)NC1CSC1` (centres unmarked) [A54] the value was at least 80%; for `Cc1cc(C2=NOC(c3cc(Cl)cc(Cl)c3)(C(F)(F)F)/C2=N/O)ccc1C(=O)NC1CS(=O)(=O)C1` (centres unmarked) [A55], at least 80%.
On the same count and under the same terms, for `Cc1cc(C2=NOC(c3cc(Cl)cc(Cl)c3)(C(F)(F)F)C2F)ccc1C(=O)NC1CS(=O)(=O)C1` (centres unmarked) [A59] the value was at least 80%; for `Cc1cc(C2=NOC(c3cc(Cl)cc(Cl)c3)(C(F)(F)F)C2F)ccc1C(=O)NC1(C)CSC1` (centres unmarked) [A60], at least 80%; for `Cc1cc(C2=NOC(c3cc(Cl)cc(Cl)c3)(C(F)(F)F)C2F)ccc1C(=O)NC1CSC1` (centres unmarked) [A61], at least 80%.
Same read-out and setting: for `Cc1cc(C2=NOC(c3cc(Cl)cc(Cl)c3)(C(F)(F)F)C2F)ccc1C(=O)NC1C[S+]([O-])C1` (centres unmarked) [A62] the value was at least 80%.

The test is the same for the next values; noted with them: same protocol, 200 ppm.
Regarding `Cc1nc2c(C3=NOC(c4cc(Cl)cc(Cl)c4)(C(F)(F)F)C3)ccc(C(=O)NC3CS(=O)(=O)C3)c2o1` (centres unmarked) [A26], the “effect on mortality, feeding behavior, or growth regulation” value (“effect on mortality, feeding behavior” below) is “little or no effect”.
As for `Cc1nc2c(C3=NOC(c4cc(Cl)cc(Cl)c4)(C(F)(F)F)C3)ccc(C(=O)NC3(C)CSC3)c2o1` (centres unmarked) [A27], the “effect on mortality, feeding behavior” value is listed as “little or no effect”.
In the case of `Cc1nc2c(C3=NOC(c4cc(Cl)cc(Cl)c4)(C(F)(F)F)C3)ccc(C(=O)NC3C[S+]([O-])C3)c2o1` (centres unmarked) [A28], the “effect on mortality, feeding behavior” value is on record as “little or no effect”.
On the same count and under the same terms, for `Cc1nc2c(C3=NOC(c4cc(Cl)cc(Cl)c4)(C(F)(F)F)C3)ccc(C(=O)NC3CSC3)c2o1` (centres unmarked) [A29] the value was “little or no effect”.
Same read-out and setting: the result for `CC1(NC(=O)c2cccc3c(C4=NOC(c5cc(Cl)cc(Cl)c5)(C(F)(F)F)C4)cccc23)CSC1` (centres unmarked) [A36] reads “little or no effect”.
On to `Cc1cc(C2=NOC(c3cc(Cl)cc(Cl)c3)(C(F)(F)F)/C2=N/O)ccc1C(=O)NC1(C)CSC1` (centres unmarked) [A56], for which the “effect on mortality, feeding behavior” value was “little or no effect”.
